Test system: NOS1
Assay: Percentage of NO neurons in treated cultures by flow cytometry for NOS1
Format: cell-based, human
Details: flow cytometry for NOS1, compared to no treatment
Description: NO neurons quantified using flow cytometry for NOS1.
Option 1 (for 3-D Culture): • 30. On day 15, ENC spheroids are gathered in the center of the wells using a swirling motion and neural crest medium is removed using a P1000 micropipette in slow circular motion, avoiding the free-floating spheroids. • 31. Spheroids are fed with the same volume of ENC medium containing PP121 (1-5 μM), GDNF (10 ng/ml), ascorbic acid (100 μM), N2 supplement (10 μl/ml), B27 supplement (20 μl/ml), glutagro (10 μl/ml), and MEM NEAAs (10 μl/ml) in neurobasal medium. • 32. Cells are fed with ENC every other day until day 30-40, after which, feeding frequency can be reduced to once or twice a week but with a higher volume of medium.
Option 2 (for 2-D Culture): • 30. On day 15, ENC spheroids are gathered in the center of the wells using a swirling motion and neural crest medium is removed using a P1000 micropipette in slow circular motion, avoiding the free-floating spheroids. • 31. After washing the spheroids with PBS, accutase is added and plates are incubated for 30 minutes at 37° C. to dissociate the spheroids. • 32. Then, remaining spheroids are broken by pipetting ENC medium. • 33. ENC contains PP121 (1-5 μM), GDNF (10 ng/ml), ascorbic acid (100 μM), N2 supplement (10 μl/ml), B27 supplement (20 μl/ml), glutagro (10 μl/ml), and MEM NEAAs (10 μl/ml) in neurobasal medium. • 34. […]

Compound | percentage of NO neurons (NOS1 induction)
PDGF | reduced the percentage of NO neurons
Nc1ncnc2c1c(-c1cnc3[nH]ccc3c1)nn2C1CCCC1 [PP121] | enhances NOS1 induction efficiency

Reference: patent publication US20230126711A1, “ENTERIC NITRERGIC NEURONS AND METHODS OF USING THE SAME” (The Regents of the University of California, priority 2020, published 2023)
